Results as given in patent US7842809B2, “Pyrazolopyridines and salts thereof, a pharmaceutical composition comprising said compounds, a method of preparing same and use of same” (Bayer Schering Pharma AG, priority 2005, dated 2010).

Experiments:
VEGFR-2 = molecular target: T1, VEGFR-2 (Homo sapiens, UniProt P35968); test: VEGFR-2 kinase assay (Biological Experiment 5, HTRF); assay type: biochemical; details: mean IC50; recombinant VEGFR-2, 10 μM ATP; read-out: Inhibition of VEGFR-2 kinase
T1 construct: made in house; host or cells: E. coli
T1 sequence (P35968 20-1356): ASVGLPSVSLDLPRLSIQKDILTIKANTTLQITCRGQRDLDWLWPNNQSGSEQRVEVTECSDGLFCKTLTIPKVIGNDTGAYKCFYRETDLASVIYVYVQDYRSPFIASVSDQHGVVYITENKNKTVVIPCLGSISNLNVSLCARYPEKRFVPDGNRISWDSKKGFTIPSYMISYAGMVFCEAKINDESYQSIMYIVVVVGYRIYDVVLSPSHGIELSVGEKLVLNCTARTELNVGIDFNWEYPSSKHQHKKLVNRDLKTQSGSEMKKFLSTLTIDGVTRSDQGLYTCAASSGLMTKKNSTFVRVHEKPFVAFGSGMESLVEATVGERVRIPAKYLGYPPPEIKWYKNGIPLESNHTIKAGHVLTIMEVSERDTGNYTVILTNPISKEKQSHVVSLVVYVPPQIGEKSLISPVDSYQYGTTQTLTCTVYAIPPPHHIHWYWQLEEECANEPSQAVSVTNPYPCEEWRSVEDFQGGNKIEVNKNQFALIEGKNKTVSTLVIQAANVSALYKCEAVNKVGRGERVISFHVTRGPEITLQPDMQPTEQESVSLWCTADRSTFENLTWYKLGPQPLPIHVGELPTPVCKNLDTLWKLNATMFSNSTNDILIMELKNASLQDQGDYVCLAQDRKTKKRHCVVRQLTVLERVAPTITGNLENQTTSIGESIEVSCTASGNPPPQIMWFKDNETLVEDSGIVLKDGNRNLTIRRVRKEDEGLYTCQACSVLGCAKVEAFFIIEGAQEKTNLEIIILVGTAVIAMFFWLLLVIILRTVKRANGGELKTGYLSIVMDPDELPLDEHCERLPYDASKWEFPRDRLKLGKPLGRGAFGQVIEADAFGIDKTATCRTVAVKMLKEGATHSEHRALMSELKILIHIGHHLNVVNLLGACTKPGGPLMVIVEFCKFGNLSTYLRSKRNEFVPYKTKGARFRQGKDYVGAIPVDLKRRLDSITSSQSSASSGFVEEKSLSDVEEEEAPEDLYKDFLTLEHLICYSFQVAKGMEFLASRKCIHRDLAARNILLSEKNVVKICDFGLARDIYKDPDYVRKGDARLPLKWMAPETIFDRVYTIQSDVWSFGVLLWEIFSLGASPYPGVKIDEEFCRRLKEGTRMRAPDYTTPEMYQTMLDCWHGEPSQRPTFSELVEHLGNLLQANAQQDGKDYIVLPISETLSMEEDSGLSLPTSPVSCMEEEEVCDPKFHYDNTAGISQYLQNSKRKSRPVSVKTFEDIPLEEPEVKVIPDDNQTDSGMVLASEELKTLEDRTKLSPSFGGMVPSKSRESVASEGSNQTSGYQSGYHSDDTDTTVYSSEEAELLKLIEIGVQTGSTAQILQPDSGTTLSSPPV
Protocol: Biological Experiment 5: VEGFR-2 Kinase Assay
Recombinant VEGFR-2 protein was expressed in E. coli and purified. As kinase substrate, a biotinylated peptide with the amino acid sequence biotin-DFGLARDMYDKEYYSVG was used, which was obtained from Biosynthan.
VEGFR-2 [Test volume 5 μL] was incubated for 45 min at 22° C. in the presence of different concentrations of test substances (0 μM, including 10 datapoints within the range 0.001-20 μM in duplicate) in assay buffer [50 mM HEPES pH7.0, 25.0 mM MgCl2, 5.0 mM MnCl2, 0.1 mM Na ortho-Vanadate, 1.0 mM Dithiothreitol, 0.001% NP40, 10 μM ATP, 1.2 μM peptide substrate, 1.0% DMSO]. The reaction was stopped by addition of 5 μL of an EDTA/detection-solution [50 mM HEPES pH7.5, 125 mM EDTA, 0.2% BSA, 0.1 μM Streptavidin-XLent (obtained from CisBio), 1 nM PT66-Eu (obtained from PerkinElmer)]. The measurement of the fluorescence emission at 620 nm and 665 nm through excitation with light of wavelength 350 nm was accomplished in a Rubystar HTRF-measurement instrument obtained from BMG Labsystems.
The data (ratio of emission at 665 nm to emission at 620 nm multiplied by 10000) was normalised to 0% inhibition (enzyme reaction without inhibitor) and 100% inhibition (all assay components without enzyme). The determination of the IC50 values was accomplished with a 4-parameter fit using in-house software.

Tie2 [1] = molecular target: T2, Tie2 (Homo sapiens, UniProt Q02763); test: Tie-2 ELISA: angiopoietin-2 stimulated Tie2 autophosphorylation in Tie2-transfected CHO cells (Biological Experiment 1); assay type: cell-based; parameters: expressed in transfected cells; host or cells: CHO (DHFR-deficient), stably transfected; details: mean IC50; CHO Tie2/DHFR cells stimulated with Ang2-Fc
Protocol: Biological Experiment 1: ELISA-Assay
Herein CHO cell-cultures, which are stably transfected by known techniques with Tie2 using DHFR deficiency as selection marker, are stimulated by angiopoietin-2. The specific autophosphorylation of Tie2 receptors is quantified with a sandwich-ELISA using anti-Tie2 antibodies for catch and anti-phosphotyrosine antibodies coupled to HRP as detection.
• 1 cap Vanadate (1 mL>40 mg/mL; working solution 2 mM) • ad 50 mL with Duschl buffer • pH 7.6 Anti-TIE-II antibody 1:425 in Coating Buffer pH 9.6 Stock solution: 1.275 mg/ml>working.: 3 μg/mL PBST: 2 bottles PBS(10×)+10 ml Tween, fill up with deionised water RotiBlock 1:10 in deionised water Anti-Phosphotyrosine HRP-Conjugated 1:10000 in 3% TopBlock • 3% TopBlock in PBST BM Chemiluminescence ELISA Substrate (POD) • solution B 1:100 solution A SF9 cell culture medium Ang2-Fc in SF9 cell culture medium Cell Experiment: Dispense 5×10^4 cells/well/98 μl in 96 well tissue culture plate Incubate at 37° C./5% CO2 After 24 h add compounds according to desired concentrations Add also to control and stimulated values without compounds 2 μl DMSO And mix for a few min at room temperature Add 100 μAng2-Fc to all wells except control, which receives insect medium Incubate 20 min at 37° C. Wash 3× with PBS++ Add 100 μl Lysis buffer/well and shake a couple of min at room temperature Store lysates at […] before utilizing for the ELISA Performance of Sandwich-ELISA Coat 96 well FluoroNunc Plate MaxiSorp Surface C with anti-Tie2 Mab 1:425 in Coating buffer pH 9.6; 100 μL/well overnight at 4° C. Wash 2× with PBST Block plates with 250 μL/well RotiBlock 1:10 in deionised water Incubate for 2 h at room temperature or overnight at 4° C. shaking Wash 2× in PBST Add thawed lysates to wells and incubate overnight shaking at 4° C. Wash 2× with PBST Add 100 μL/well anti-Phosphotyrosine HRP-Conjugated 1:10000 in 3% TopBlock (3% TopBlock in PBST) and incubate overnight under shaking Wash 6× with PBST Add 100 μL/well BM Chemiluminescence ELISA Substrate (POD solutions 1 and 2 (1:100) Determine luminescence with the LumiCount. Biological Experiment 2: Tie-2-Kinase HTRF-Assay
Target sequence in this assay (Q02763 23-1124): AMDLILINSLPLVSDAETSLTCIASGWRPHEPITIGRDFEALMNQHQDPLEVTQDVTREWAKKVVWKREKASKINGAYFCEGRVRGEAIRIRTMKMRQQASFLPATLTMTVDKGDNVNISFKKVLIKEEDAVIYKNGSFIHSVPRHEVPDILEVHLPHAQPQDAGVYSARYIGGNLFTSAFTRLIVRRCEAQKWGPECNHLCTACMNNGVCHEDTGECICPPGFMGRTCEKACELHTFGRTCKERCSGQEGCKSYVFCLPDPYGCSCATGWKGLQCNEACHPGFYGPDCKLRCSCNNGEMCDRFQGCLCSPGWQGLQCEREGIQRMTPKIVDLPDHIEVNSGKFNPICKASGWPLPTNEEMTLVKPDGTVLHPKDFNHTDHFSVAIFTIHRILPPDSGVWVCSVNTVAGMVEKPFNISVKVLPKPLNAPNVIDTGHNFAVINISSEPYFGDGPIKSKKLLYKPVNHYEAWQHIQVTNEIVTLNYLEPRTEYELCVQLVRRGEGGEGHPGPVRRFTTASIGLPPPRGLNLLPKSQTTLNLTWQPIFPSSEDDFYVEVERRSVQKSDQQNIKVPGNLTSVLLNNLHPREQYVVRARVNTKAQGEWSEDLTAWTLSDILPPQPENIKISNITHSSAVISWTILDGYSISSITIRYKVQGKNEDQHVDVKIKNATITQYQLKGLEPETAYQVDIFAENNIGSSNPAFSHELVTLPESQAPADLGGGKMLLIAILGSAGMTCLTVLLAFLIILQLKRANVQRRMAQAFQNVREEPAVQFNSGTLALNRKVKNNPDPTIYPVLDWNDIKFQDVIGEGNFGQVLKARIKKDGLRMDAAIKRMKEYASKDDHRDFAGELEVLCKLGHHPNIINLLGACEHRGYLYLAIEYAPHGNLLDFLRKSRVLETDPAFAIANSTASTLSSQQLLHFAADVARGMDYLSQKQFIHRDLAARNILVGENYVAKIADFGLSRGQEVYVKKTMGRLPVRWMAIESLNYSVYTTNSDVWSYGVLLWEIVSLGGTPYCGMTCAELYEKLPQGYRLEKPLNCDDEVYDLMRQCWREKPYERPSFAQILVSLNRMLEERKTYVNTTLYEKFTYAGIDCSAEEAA

Tie2 [2] = molecular target: T2, Tie2; test: Tie-2 kinase assay without preactivation of kinase (Biological Experiment 3, HTRF); assay type: biochemical; parameters: fusion protein of GST and the intracellular domains of Tie-2; GST; made in house; host or cells: insect cells (Hi-5); details: mean IC50; GST-Tie-2 without preactivation, 10 μM ATP; read-out: Inhibition of Tie-2 kinase (Biological Experiment 3)
Excerpt: Biological Experiment 3: Tie-2 Kinase Assay without Preactivation of Kinase
A recombinant fusion protein of GST and the intracellular domains of Tie-2, expressed in insect cells (Hi-5) and purified by Glutathion-Sepharose affinity chromatography was used as kinase. Alternatively, commercially available GST-Tie2-fusion protein (Upstate Biotechnology, Dundee, Scotland) can be used. As substrate for the kinase reaction the biotinylated peptide biotin-Ahx-EPKDDAYPLYSDFG (C-terminus in amide form) was used which can be purchased e.g. from the company Biosynthan GmbH (Berlin-Buch, Germany). Tie-2 (3.5 ng/measurement point) was incubated for 60 min at 22° C. in the presence of 10 μM adenosine-tri-phosphate (ATP) and 1 μM substrate peptide (biotin-Ahx-EPKDDAYPLYSDFG-NH2) with different concentrations of test compounds (0 μM and concentrations in the range 0.001-20 μM) in 5 μl assay buffer [50 mM Hepes/NaOH pH 7, 10 mM MgCl2, 0.5 mM MnCl2, 1.0 mM dithiothreitol, 0.01% NP40, protease inhibitor mixture (“Complete w/o EDTA” from Roche, 1 tablet per 2.5 ml), 1% (v/v) dimethylsulfoxide]. To stabilize the enzyme, bovine serum albumin (0.1%, w/v) can be added. The reaction was stopped by the addition of 5 μl of an aqueous buffer (25 mM Hepes/NaOH pH 7.5, 0.28% (w/v) bovine serum albumin) containing EDTA (90 mM) and the HTRF (Homogeneous Time Resolved Fluorescence) detection reagents streptavidine-XLent (0.2 μM, from C is Biointernational, Marcoule, France) and PT66-Eu-Chelate (0.3 ng/μl; a europium-chelate labelled anti-phospho-tyrosine antibody from Perkin Elmer).
The resulting mixture was incubated 1 h at 22° C. to allow the binding of the biotinylated phosphorylated peptide to the streptavidine-XLent and the PT66-Eu-Chelate. Subsequently the amount of phosphorylated substrate peptide was evaluated by measurement of the resonance energy transfer from the PT66-Eu-Chelate to the streptavidine-XLent. Therefore, the fluorescence emissions at 620 nm and 665 nm after excitation at 350 nm was measured in a HTRF reader, e.g. a Rubystar (BMG Labtechnologies, Offenburg, Germany) or a Viewlux (Perkin-Elmer). The ratio of the emissions at 665 nm and at […] was taken as the measure for the amount of phosphorylated substrate peptide. The data were normalised (enzyme reaction without inhibitor=0% inhibition, all other assay components but no enzyme=100% inhibition) and IC50 values were calculated by a 4 parameter fit using an inhouse software.
Target sequence in this assay (Q02763 770-1124 limits assumed): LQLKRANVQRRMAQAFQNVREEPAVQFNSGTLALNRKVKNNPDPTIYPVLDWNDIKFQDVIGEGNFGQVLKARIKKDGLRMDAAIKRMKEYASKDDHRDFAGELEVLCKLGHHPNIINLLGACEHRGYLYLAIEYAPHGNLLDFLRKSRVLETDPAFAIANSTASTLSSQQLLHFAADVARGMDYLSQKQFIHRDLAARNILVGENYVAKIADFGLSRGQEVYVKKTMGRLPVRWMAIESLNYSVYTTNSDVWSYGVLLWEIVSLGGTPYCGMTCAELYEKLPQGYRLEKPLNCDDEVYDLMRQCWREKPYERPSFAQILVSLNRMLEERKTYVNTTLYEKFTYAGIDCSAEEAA

| Structure (SMILES) | IC50 (VEGFR-2) | IC50 (Tie2 [1]) | IC50 (Tie2 [2]) |
| --- | --- | --- | --- |
| CC(C)(C)c1cc(-c2ccc(NC(=O)Nc3ccccc3)cc2)c2c(N)n[nH]c2n1 [Example 1, 1-[4-(3-amino-6-tert-butyl-1H-pyrazolo[3,4-b]pyridin-4-yl)-phenyl]-3-phenyl-urea] | 500 to 2000 nM | 500 to 2000 nM | ≤ 500 nM |
| CC(C)(C)c1cc(-c2ccc(NS(=O)(=O)c3ccccc3)cc2)c2c(N)n[nH]c2n1 [Example 2, N-[4-(3-amino-6-tert-butyl-1H-pyrazolo[3,4-b]pyridin-4-yl)-phenyl]-benzenesulfonamide] | – | 500 to 2000 nM | 500 to 2000 nM |
| CC(C)(C)c1cc(-c2ccc(NC(=O)Nc3cccc(F)c3)cc2)c2c(N)n[nH]c2n1 [Example 3, 1-[4-(3-amino-6-tert-butyl-1H-pyrazolo[3,4-b]pyridin-4-yl)-phenyl]-3-(3-fluoro-phenyl)-urea] | – | ≤ 500 nM | 500 to 2000 nM |
| Cc1cccc(NC(=O)Nc2ccc(-c3cc(C(C)(C)C)nc4[nH]nc(N)c34)cc2)c1 [Example 9, 1-[4-(3-amino-6-tert-butyl-1H-pyrazolo[3,4-b]pyridin-4-yl)-phenyl]-3-m-tolyl-urea] | 500 to 2000 nM | ≤ 500 nM | ≤ 500 nM |
| CC(C)(C)c1cc(-c2ccc(NC(=O)Nc3ccc(F)cc3)cc2)c2c(N)n[nH]c2n1 [Example 12, 1-[4-(3-amino-6-tert-butyl-1H-pyrazolo[3,4-b]pyridin-4-yl)-phenyl]-3-(4-fluoro-phenyl)-urea] | – | ≤ 500 nM | 500 to 2000 nM |
| Nc1n[nH]c2nc(C3CC3)cc(-c3ccc(NC(=O)Nc4ccccc4)cc3)c12 [Example 14, 1-[4-(3-amino-6-cyclopropyl-1H-pyrazolo[3,4-b]pyridin-4-yl)-phenyl]-3-phenyl-urea] | ≤ 500 nM | ≤ 500 nM | 500 to 2000 nM |
| Nc1n[nH]c2nc(C3CC3)cc(-c3ccc(NC(=O)Nc4ccccc4F)cc3)c12 [Example 15, 1-[4-(3-amino-6-cyclopropyl-1H-pyrazolo[3,4-b]pyridin-4-yl)-phenyl]-3-(2-fluoro-phenyl)-urea] | 500 to 2000 nM | ≤ 500 nM | ≤ 500 nM |
| CC(C)c1cc(-c2ccc(NC(=O)Nc3cccc(C(F)(F)F)c3)cc2)c2c(N)n[nH]c2n1 [Example 16, 1-[4-(3-amino-6-isopropyl-1H-pyrazolo[3,4-b]pyridin-4-yl)-phenyl]-3-(3-trifluoromethyl-phenyl)-urea] | ≤ 500 nM | ≤ 500 nM | ≤ 500 nM |
| Cc1ccc(C(=O)Nc2ccc(-c3cc(C(C)(C)C)nc4[nH]nc(N)c34)cc2)cc1 [Example 17, N-[4-(3-amino-6-tert-butyl-1H-pyrazolo[3,4-b]pyridin-4-yl)-phenyl]-4-methyl-benzamide] | 500 to 2000 nM | 500 to 2000 nM | 500 to 2000 nM |
| CC(C)(C)c1cc(-c2ccc(NC(=O)Nc3cccc(C(F)(F)F)c3)cc2)c2c(N)n[nH]c2n1 [Example 27, 1-[4-(3-amino-6-tert-butyl-1H-pyrazolo-[3,4-b]pyridin-4-yl)-phenyl]-3-(3-trifluoro-methyl-phenyl)-urea] | ≤ 500 nM | ≤ 500 nM | ≤ 500 nM |
| Cc1ccc(F)c(NC(=O)Nc2ccc(-c3cc(C(C)(C)C)nc4[nH]nc(N)c34)cc2)c1 [Example 31, 1-[4-(3-amino-6-tert-butyl-1 H-pyrazolo[3,4-b]pyridin-4-yl)-phenyl]-3-(2-fluoro-5-methyl-phenyl)-urea] | – | – | ≤ 500 nM |
| CC(C)(C)c1cc(-c2ccc(NC(=O)Nc3cc(C(F)(F)F)ccc3F)cc2)c2c(N)n[nH]c2n1 [Example 37, 1-[4-(3-amino-6-tert-butyl-1H-pyrazolo[3,4-b]pyridin-4-yl)-phenyl]-3-(2-fluoro-5-trifluoromethyl-phenyl)-urea] | ≤ 500 nM | ≤ 500 nM | ≤ 500 nM |
| CC(C)(C)c1cc(-c2ccc(NC(=O)Cc3ccccc3)cc2)c2c(N)n[nH]c2n1 [Example 47, N-[4-(3-amino-6-tert-butyl-1H-pyrazolo[3,4-b]pyridin-4-yl)-phenyl]-2-phenyl-acetamide] | – | 500 to 2000 nM | 500 to 2000 nM |
| CC(C)(C)c1cc(-c2ccc(NC(=O)C3(c4ccccc4)CC3)cc2)c2c(N)n[nH]c2n1 [Example 49, 1-phenyl-cyclopropanecarboxylic acid [4-(3-amino-6-tert-butyl-1H-pyrazolo[3,4-b]pyridin-4-yl)-phenyl]-amide] | – | ≤ 500 nM | ≤ 500 nM |
| CC(C)(C)c1cc(-c2ccc(NC(=O)C(C)(C)c3ccccc3)cc2)c2c(N)n[nH]c2n1 [Example 51, N-[4-(3-amino-6-tert-butyl-1H-pyrazolo[3,4-b]pyridin-4-yl)-phenyl]-2-phenyl-isobutyramide] | – | ≤ 500 nM | 500 to 2000 nM |
